Measurements as given in patent US9017938B2, “Use of microrna-199b-5p in medical and diagnostic field” (Advanced Accelerator Applications, priority 2009, dated 2015).

Key:
HES1 = assay: Western blotting of HES1 protein; assay type: cell-based, human; conditions: Daoy cell line, DAPT 12 h
Method: Thirty μg cytosolic or nuclear lysates were loaded onto 12% polyacrilamide gels, and blotted onto polyvinylidene difluoride membranes (PVDF; BioRad, Milan, Italy). The membranes were then incubated with anti-HES1 (kind gift of Dr. Tetsuo Sudo TORAY Industries, Tebiro Kamakura, Japan), a polyclonal rabbit antibody (1:500), an anti-GSK3-β (B&D Bioscience) monoclonal antibody (1:2500), an anti-c-Myc polyclonal rabbit antibody (1:200) (Santa Cruz Biotechnology, Santa Cruz, Calif., USA), an anti-GABRA6 antibody (Santa Cruz Biotechnology, Santa Cruz, USA) (1:200), an anti-MATH3 antibody (Santa Cruz Biotechnology, Santa Cruz, USA) (1:200) and an anti-cyclin D1 (1:200) polyclonal rabbit antibody (Cell Signaling). An anti-β-actin antibody (1:1.000) (Sigma) was used as the control for equal loading of cytosolic lysates and a polyclonal anti-β-laminin antibody (1:50) (Santa Cruz Biotechnology, Santa Cruz, Calif., USA) for equal loading of nuclear lysates.

Daoy cell line [1] = assay: DAPT treatment, miR-199b expression by real-time PCR; assay type: cell-based, human; conditions: 10 μM DAPT, 12 h, relative to time 0
Method: The reverse transcriptase (RT) reactions contained 40 ng RNA sample, 50 nM stem-loop RT primer, 1×RT buffer (P/N:4319981, Applied Biosystems), 0.25 mM each of dNTPs, […] MultiScribe RT (P/N: 4319983, Applied Biosystems) and […] RNase inhibitor (P/N: N8080119; Applied Biosystems). The 15 μl reactions were incubated in an Applied Biosystems 9700 Thermocycler for 30 min at 16° C., 30 min at 42° C., 5 min at 85° C., and then held at 4° C.
Real-time PCR was performed using a standard TaqMan PCR kit protocol on an Applied Biosystems 7900HT Sequence Detection System. The 20 μl PCR mix included 2 μl RT product, 10 μl TaqMan Universal PCR Master Mix (Applied Biosystems), […] TaqMan probe. The reactions were incubated in a 96-well plate at 95° C. for 10 min, followed by 60 cycles of 95° C. for 15 s and 60° C. for 1 min.
(§1) N—[N-(3,5-difluorophenacetyl)-l-alanyl]-S-phenylglycine t-butylester (DAPT (Sigma-Aldrich) treatment of the Daoy cells was performed as follows: the cells were plated and allowed to grow overnight in medium containing 10% FBS. The next morning, the medium was replaced with medium containing 10 μM DAPT and replaced each 4 h with this medium. The expression assays was performed after 0, 6, 12, 24 h of treatment […], using control experiments including the corresponding volume of DMSO as vehicle.

Daoy cell line [2] = assay: DAPT treatment, stem-cell gene expression by real-time PCR; assay type: cell-based, human; conditions: Daoy + DAPT 12 h
Method: Total RNA was extracted from the cell lines using the Trizol reagent (Invitrogen). Synthesis of cDNA from total RNA (4 μg) was performed using a Super Script II First Strand Kit (Invitrogen). Real-time quantitative PCR was performed using standard protocols with an Applied Biosystems ABI PRISM 7900HT Sequence Detection system. To calculate the relative gene expression of the miR-199b-5p precursor, the relative amounts of each pre-miRNA were normalized to U6 miRNA; the other genes were normalized using the β-actin gene. Real-time PCR primers for each gene were designed using Primer Express software version 2.0 (Applied Biosystems). The primer sequences are available upon request.
as §1

MB cell lines = assay: AZA treatment, miR-199b-5p expression by real-time PCR; assay type: cell-based; conditions: two cell lines (Med8 and UV238) of a panel of five; 5 μM, 72 h
Method: Five MB cell lines (d283, Daoy, med8a, ons76, uw228) were grown in DMEM supplemented with 10% FBS and antibiotics. Upon reaching 85% confluence, the media was spiked with 5-aza-deoxycytidine (AZA) (Sigma) to a final concentration of 5 μM. Over 72 h the media was replaced daily with fresh AZA-enhanced medium. RNA was extracted using a standard phenol (TRIzol)-chloroform protocol.

SMILES | HES1 protein (Western blot) (HES1) | increase of miR-199b-5p level (Daoy cell line [1]) [fold] | CD 133 expression 2^-DCt (Daoy cell line [2]) | HMGA1 expression 2^-DCt (Daoy cell line [2]) | HMGB3 expression 2^-DCt (Daoy cell line [2]) | ILF3 expression 2^-DCt (Daoy cell line [2]) | KLF5 expression 2^-DCt (Daoy cell line [2]) | MYBL2 expression 2^-DCt (Daoy cell line [2]) | Nanog expression 2^-DCt (Daoy cell line [2]) | Oct4 expression 2^-DCt (Daoy cell line [2]) | PDGFR-A expression 2^-DCt (Daoy cell line [2]) | PDGFR-B expression 2^-DCt (Daoy cell line [2]) | SPARC expression 2^-DCt (Daoy cell line [2]) | TCF7L1 expression 2^-DCt (Daoy cell line [2]) | TEAD4 expression 2^-DCt (Daoy cell line [2]) | ZIC1 expression 2^-DCt (Daoy cell line [2]) | c-Myc expression 2^-DCt (Daoy cell line [2]) | miR-199b-5p expression (MB cell lines)
C[C@H](NC(=O)Cc1cc(F)cc(F)c1)C(=O)N[C@H](C(=O)OC(C)(C)C)c1ccccc1 [DAPT, N—[N-(3,5-difluorophenacetyl)-l-alanyl]-S-phenylglycine t-butylester] | down-regulation | 9 | 0.001237 | 0.004879 | 0.005577 | 0.04252 | 0.02368 | 0.003932 | 0.0004488 | 0.0007941 | 0.0000015 | 0.0000606 | 0.07977 | 0.0001026 | 0.005176 | 0.0002784 | 0.05427 | 
Nc1ncn([C@H]2C[C@H](O)[C@@H](CO)O2)c(=O)n1 [5-aza-deoxycytidine] |  |  |  |  |  |  |  |  |  |  |  |  |  |  |  |  |  | significant up-regulation
